Where a name gives a salt, the structure may show the parent alone.

The subject of one assay is Z-138 cells. Kind of assay: Inhibitory activity on tumor cell proliferation (Cell-Titer Glo, 8 days). It counts as cell-based. The settings on record: Homo sapiens, 192 h, read-out: Inhibition of cell proliferation Z-138 IC50. The procedure:
Materials and cells: Z-138 cells were purchased from ATCC (USA); IMDM medium and penicillin-streptomycin were purchased from Sigma PLC. (USA); horse serum was purchased from Hyclone (USA); 96-well plate was purchased from Corning (USA); and Cell-Titer Glo reagent was purchased from Promega (USA).
Cell culture: Z-138 cells were cultured in an IMDM culture solution containing 10% Horse serum+1% penicillin−streptomycin at 37° C., 5% CO2. Cells in logarithmic growth phase were suitable for the experiment.
Detection of cell proliferation activity: The inhibitory activities of the compounds on the proliferation of Z-138 cells were detected by using the Cell-Titer Glo reagent. The concentrations of the cells were adjusted, and 180 μL was inoculated in each well of the 96-well plate (500/well) and equilibrated for 10-15 minutes at 37° C., 5% CO2. 20 μL of a culture solution containing the compounds was added into each well with the final concentration reaching 0-300 nM (initial concentration: 300 nM, 3-fold dilution, for 10 points), and the DMSO content was 0.1%. The cell plate was placed at 37° C., 5% CO2 and incubated for 8 days. Culture solution was replaced at day 4: 100 μL of the supernatant was slowly aspirated and 100 μL of a fresh culture solution containing the compounds was provided as a supplement while the concentrations of the compounds were held constant. The cell viability was detected by using the Cell-Titer Glo reagent.
In the case of `O=C1c2ccc(C(=O)N3C4CCC3COC4)cc2OCCN1C[C@@H](O)[C@@H]1Cc2ccccc2CN1` [Compound 007, 8-(3-oxa-8-azabicyclo[3.2.1]octane-8-carbonyl)-4-((R)-2-hydroxy-2-((S)-1,2,3,4-tetrahydroisoquinolin-3-yl)ethyl)-3,4-dihydrobenzo[f][1,4]oxazepin-5(2H)-one], the IC50 turned out to be 7.55 nM.
On the same count and under the same terms, then `CCN1CCN(C[C@@H](O)[C@@H]2Cc3ccccc3CN2)C(=O)c2ccc(C(=O)N3CCC4(CCOCC4)C3)cc21` [Compound 010, 1-ethyl-4-((R)-2-hydroxy-2-((S)-1,2,3,4-tetrahydroisoquinolin-3-yl)ethyl)-8-(8-oxa-2-azaspiro[4.5]decane-2-carbonyl)-1,2,3,4-tetrahydro-5H-benzo[e][1,4]diazepin-5-one hydrochloride], with 1.93 nM; and `CCN1CCN(C[C@@H](O)[C@@H]2Cc3ccccc3CN2)C(=O)c2ccc(C(=O)N3CC4(CCC(OC)CC4)C3)cc21` [Compound 011, 1-ethyl-4-((R)-2-hydroxy-2-((S)-1,2,3,4-tetrahydroisoquinolin-3-yl)ethyl)-8-(7-methoxy-2-azaspiro[3.5]nonane-2-carbonyl)-1,2,3,4-tetrahydro-5H-benzo[e][1,4]diazepin-5-one hydrochloride], with 2.2 nM; and `CCN1CCN(C[C@@H](O)[C@@H]2Cc3ccccc3CN2)C(=O)c2ccc(C(=O)N3CCC4(CC4)C(F)(F)C3)cc21` [Compound 012, 8-(4,4-difluoro-6-azaspiro[2.5]octane-6-carbonyl)-1-ethyl-4-((R)-2-hydroxy-2-((S)-1,2,3,4-tetrahydroisoquinolin-3-yl)ethyl)-1,2,3,4-tetrahydro-5H-benzo[e][1,4]diazepin-5-one hydrochloride], with 4.09 nM.
Consider `CCN1CCN(C[C@@H](O)[C@@H]2Cc3ccccc3CN2)C(=O)c2ccc(C(=O)N3CCC4(CC3)CC4(F)F)cc21` [Compound 013, 8-(1,1-difluoro-6-azaspiro[2.5]octane-6-carbonyl)-1-ethyl-4-((R)-2-hydroxy-2-((S)-1,2,3,4-tetrahydroisoquinolin-3-yl)ethyl)-1,2,3,4-tetrahydro-5H-benzo[e][1,4]diazepin-5-one hydrochloride], for which the IC50 is 2.37 nM.
Same read-out and setting: for `CCN1CCN(C[C@@H](O)[C@@H]2Cc3ccccc3CN2)C(=O)c2ccc(C(=O)N3CCOCC3)cc21` [Compound 014, 1-ethyl-4-((R)-2-hydroxy-2-((S)-1,2,3,4-tetrahydroisoquinolin-3-yl)ethyl)-8-(morpholine-4-carbonyl)-1,2,3,4-tetrahydro-5H-benzo[e][1,4]diazepin-5-one hydrochloride] the value was 11.7 nM; for `CCN1CCN(C[C@@H](O)[C@@H]2Cc3ccccc3CN2)C(=O)c2ccc(C(=O)N3CCN(C(C)=O)CC3)cc21` [Compound 015, 8-(4-acetylpiperazine-1-carbonyl)-1-ethyl-4-((R)-2-hydroxy-2-((S)-1,2,3,4-tetrahydroisoquinolin-3-yl)ethyl)-1,2,3,4-tetrahydro-5H-benzo[e][1,4]diazepin-5-one hydrochloride], 11.1 nM.
Same read-out and setting: for `CCN1CCN(C[C@@H](O)[C@@H]2Cc3ccccc3CN2)C(=O)c2ccc(C(=O)N(C)Cc3ccccc3)cc21` [Compound 016, N-benzyl-1-ethyl-4-((R)-2-hydroxy-2-((S)-1,2,3,4-tetrahydroisoquinolin-3-yl)ethyl)-N-methyl-5-oxo-2,3,4,5-tetrahydro-1H-benzo[e][1,4]diaza-8-carboxamide hydrochloride] the value was 45.1 nM.
On the same count and under the same terms, for `CCN1CCN(C[C@@H](O)[C@@H]2Cc3ccccc3CN2)C(=O)c2ccc(C(=O)N(C)CCc3ccc(F)cc3)cc21` [Compound 017, 1-ethyl-N-(4-fluorophenethyl)-4-((R)-2-hydroxy-2-((S)-1,2,3,4-tetrahydroisoquinolin-3-yl)ethyl)-N-methyl-5-oxo-2,3,4,5-tetrahydro-1H-benzo[e][1,4]diazepine-8-carboxamide hydrochloride] the value was 27.6 nM; for `CCN1CCN(C[C@@H](O)[C@@H]2Cc3ccccc3CN2)C(=O)c2ccc(C(=O)N(C)CCc3cccnc3)cc21` [Compound 018, 1-ethyl-4-((R)-2-hydroxy-2-((S)-1,2,3,4-tetrahydroisoquinolin-3-yl)ethyl)-N-methyl-5-oxo-N-(2-(pyridin-3-yl)ethyl)-2,3,4,5-tetrahydro-1H-benzo[e][1,4]diazepine-8-carboxamide hydrochloride], 26 nM; for `CCN(CC)C(=O)c1ccc2c(c1)N(CC)CCN(C[C@@H](O)[C@@H]1Cc3ccccc3CN1)C2=O` [Compound 019, N,N,1-triethyl-4-((R)-2-hydroxy-2-((S)-1,2,3,4-tetrahydroisoquinolin-3-yl)ethyl)-5-oxo-2,3,4,5-tetrahydro-1H-benzo[e][1,4]diazepine-8-carboxamide hydrochloride], 20.4 nM.
Take `CCN1CCN(C[C@@H](O)[C@@H]2Cc3ccccc3CN2)C(=O)c2ccc(C(=O)N3C4CCCC3COC4)cc21` [Compound 020, 8-(3-oxa-9-azabicyclo[3,3,1]nonane-9-carbonyl)-1-ethyl-4-((R)-2-hydroxy-2-((S)-1,2,3,4-tetrahydroisoquinolin-3-yl)ethyl)-1,2,3,4-tetrahydro-5H-benzo[e][1,4]diazepin-5-one hydrochloride]: the IC50 was found to be 3.71 nM.
With `CCN1CCN(C[C@@H](O)[C@@H]2Cc3ccccc3CN2)C(=O)c2ccc(C(=O)N3CCC4(CC3)CC(N(C)C)C4)cc21` [Compound 021, 8-(2-(dimethylamino)-7-azaspiro[3.5]nonane-7-carbonyl)-1-ethyl-4-((R)-2-hydroxy-2-((S)-1,2,3,4-tetrahydroisoquinolin-3-yl)ethyl)-1,2,3,4-tetrahydro-5H-benzo[e][1,4]diazepin-5-one hydrochloride], the IC50 worked out at 8.35 nM.
In the case of `CCN1CCN(C[C@@H](O)[C@@H]2Cc3ccccc3CN2)C(=O)c2ccc(C(=O)N3C4CCC3CC(O)C4)cc21` (stereo partly drawn) [Compound 022, 1-ethyl-4-((R)-2-hydroxy-2-((S)-1,2,3,4-tetrahydroisoquinolin-3-yl)ethyl)-8-(3-hydroxy-8-azabicyclo[3.2.1]octane-8-carbonyl)-1,2,3,4-tetrahydro-5H-benzo[e][1,4]diazepin-5-one hydrochloride], the IC50 was 14.7 nM.
The same measure, in the same setting: then `CCN1CCN(C[C@@H](O)[C@@H]2Cc3ccccc3CN2)C(=O)c2ccc(C(=O)N3CC4COCC4C3)cc21` (stereo partly drawn) [Compound 023, 1-ethyl-8-(hexahydro-1H-furo[3,4-c]pyrrole-5-carbonyl)-4-((R)-2-hydroxy-2-((S)-1,2,3,4-tetrahydroisoquinolin-3-yl)ethyl)-1,2,3,4-tetrahydro-5H-benzo[e][1,4]diazepin-5-one hydrochloride], with 16.8 nM; and `CCN1CCN(C[C@@H](O)[C@@H]2Cc3ccccc3CN2)C(=O)c2ccc(C(=O)N3CC4(COC4)C3)cc21` [Compound 025, 1-ethyl-4-((R)-2-hydroxy-2-((S)-1,2,3,4-tetrahydroisoquinolin-3-yl)ethyl)-8-(2-oxa-6-azaspiro[3.3]heptane-6-carbonyl)-1,2,3,4-tetrahydro-5H-benzo[e][1,4]diazepin-5-one], with 138 nM.
The same measure, in the same setting: for `CCN1CCN(C[C@@H](O)[C@@H]2Cc3ccccc3CN2)C(=O)c2ccc(C(=O)N3CCC4(CC3)CC(=O)C4)cc21` [Compound 026, 1-ethyl-4-((R)-2-hydroxy-2-((S)-1,2,3,4-tetrahydroisoquinolin-3-yl)ethyl)-8-(2-oxo-7-azaspiro[3.5]nonane-7-carbonyl)-1,2,3,4-tetrahydro-5H-benzo[e][1,4]diazepin-5-one] the value was 5.62 nM; for `Cl.[2H]C([2H])([2H])OC1CC2(CCN(C(=O)c3ccc4c(c3)N(CC)CCN(C[C@@H](O)[C@@H]3Cc5ccccc5CN3)C4=O)CC2)C1` [Compound 027, 1-ethyl-4-((R)-2-hydroxy-2-((S)-1,2,3,4-tetrahydroisoquinolin-3-yl)ethyl)-8-(2-(methoxy-d3)-7-azaspiro[3.5]nonane-7-carbonyl)-1,2,3,4-tetrahydro-5H-benzo[e][1,4]diazepin-5-one hydrochloride], 2.36 nM.

In the next assay the target is T1, PRMT5/MEP50 (Homo sapiens, UniProt O14744).
T1 construct: purchased BPS Bioscience Inc. (USA)
T1 sequence (O14744 2-637 limits assumed): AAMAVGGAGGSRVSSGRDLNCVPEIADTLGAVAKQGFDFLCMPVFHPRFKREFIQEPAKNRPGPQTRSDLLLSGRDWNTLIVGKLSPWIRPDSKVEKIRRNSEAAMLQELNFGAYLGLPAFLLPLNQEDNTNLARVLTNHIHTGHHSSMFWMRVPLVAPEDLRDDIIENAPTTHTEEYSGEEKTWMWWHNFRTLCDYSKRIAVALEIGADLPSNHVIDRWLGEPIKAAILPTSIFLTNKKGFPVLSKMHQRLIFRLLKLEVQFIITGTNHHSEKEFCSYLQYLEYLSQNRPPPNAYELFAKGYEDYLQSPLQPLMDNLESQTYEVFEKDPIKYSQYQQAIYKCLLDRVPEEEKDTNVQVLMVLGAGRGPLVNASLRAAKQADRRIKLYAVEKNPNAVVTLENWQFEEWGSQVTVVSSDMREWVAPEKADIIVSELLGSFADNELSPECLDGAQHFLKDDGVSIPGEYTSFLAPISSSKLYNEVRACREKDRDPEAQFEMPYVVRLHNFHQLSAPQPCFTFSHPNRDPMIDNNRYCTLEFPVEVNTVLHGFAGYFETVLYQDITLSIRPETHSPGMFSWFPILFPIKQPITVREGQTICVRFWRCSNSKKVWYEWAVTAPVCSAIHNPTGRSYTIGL
T1 sequence (Q9BQA1 2-342 partner limits assumed): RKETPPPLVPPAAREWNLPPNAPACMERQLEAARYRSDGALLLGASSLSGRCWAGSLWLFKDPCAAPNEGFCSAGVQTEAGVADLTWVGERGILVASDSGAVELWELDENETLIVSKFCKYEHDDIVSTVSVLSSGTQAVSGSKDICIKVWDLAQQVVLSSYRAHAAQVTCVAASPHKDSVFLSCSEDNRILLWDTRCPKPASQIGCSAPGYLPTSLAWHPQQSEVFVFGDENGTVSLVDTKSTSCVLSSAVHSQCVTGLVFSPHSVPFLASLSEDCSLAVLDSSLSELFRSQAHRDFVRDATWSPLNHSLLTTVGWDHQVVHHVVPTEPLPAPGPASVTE
Put plainly: PRMT5 enzymatic activity inhibition experiment (AlphaScreen). It counts as biochemical. The following applies: PRMT5/MEP50, Histone H4 peptide substrate; read-out: Inhibition of enzymatic activity IC50. The text has this:
Materials: PRMT5/MEP50 proteins were purchased from BPS Bioscience Inc. (USA); Histone H4 Peptide substrate was purchased from Sangon Biotech (Shanghai) Co., Ltd.; Anti-Histone H4 (symmetric dimethyl R3) antibody—ChIP Grade was purchased from Abcam PLC. (USA); S-(5′-Adenosyl)-L-methionine chloride dihydrochloride was purchased from Sigma PLC. (USA); 384-well plate, AlphaScreen Streptavidin Donor beads, AlphaScreen Protein A Acceptor beads, and Envision 2104 multi-label Reader were purchased from Perkin-Elmer Instruments (USA) Corporation; and Echo 550 Liquid Handler was purchased from Labcyte Inc. (USA).
Enzymatic activity assay: The compounds were added into a 384-well plate by using the Echo 550 Liquid Handler with the final concentration of 0-1000 nM (initial concentration: 1000 nM, 3-fold dilution, for 10 points), and the DMSO content was 0.5%. 10 μL of a 2× PRMT5/MEP50 solution was added into each well and incubated at room temperature for 30 minutes. 10 μL of 2× PRMT5/MEP50 substrate solution was added to each well to start the reaction and incubated at room temperature for 60 minutes. A 6× detection reagent containing AlphaScreen Protein A Acceptor beads and Anti-Histone H4 (symmetric dimethyl R3) antibodies was prepared and 5 μL was added to each well. The plate was incubated at room temperature for 60 minutes. A 6× detection reagent containing AlphaScreen Streptavidin Donor beads was prepared and 5 μL was added to each well. The plate was incubated at room temperature for 60 minutes. The signal values were detected by using the Envision.
Take `O=C1c2ccc(C(=O)N3C4CCC3COC4)cc2OCCN1C[C@@H](O)[C@@H]1Cc2ccccc2CN1` [Compound 007, 8-(3-oxa-8-azabicyclo[3.2.1]octane-8-carbonyl)-4-((R)-2-hydroxy-2-((S)-1,2,3,4-tetrahydroisoquinolin-3-yl)ethyl)-3,4-dihydrobenzo[f][1,4]oxazepin-5(2H)-one]: the IC50 turned out to be 7.66 nM.

Values taken from patent US20230250108A1, “TETRAHYDROISOQUINOLINE COMPOUNDS AND USE THEREOF” (JIANGSU SIMCERE PHARMACEUTICAL CO., LTD., priority 2020, published 2023).
